These results are taken from patent US10479784B2, “Substituted pyrazin-2-amines as inhibitors of ATR kinase” (Vertex Pharmaceuticals Incorporated, priority 2008, dated 2019).

This assay deals with full-length ATR (Homo sapiens (Human), UniProt Q13535). The assay is described as follows: ATR Inhibition Assay (radioactive-phosphate incorporation). Conditions: read-out: ATR Ki. In kind it is biochemical. How it is done: Compounds were screened for their ability to inhibit ATR kinase using a radioactive-phosphate incorporation assay. Assays were carried out in a mixture of 50 mM Tris/HCl (pH 7.5), 10 mM MgCl2 and 1 mM DTT. Final substrate concentrations were […] [γ-33P]ATP (3mCi 33P ATP/mmol ATP, Perkin Elmer) and 800 μM target peptide ([…]).
full-length ATR, sequence (Q13535 whole entry): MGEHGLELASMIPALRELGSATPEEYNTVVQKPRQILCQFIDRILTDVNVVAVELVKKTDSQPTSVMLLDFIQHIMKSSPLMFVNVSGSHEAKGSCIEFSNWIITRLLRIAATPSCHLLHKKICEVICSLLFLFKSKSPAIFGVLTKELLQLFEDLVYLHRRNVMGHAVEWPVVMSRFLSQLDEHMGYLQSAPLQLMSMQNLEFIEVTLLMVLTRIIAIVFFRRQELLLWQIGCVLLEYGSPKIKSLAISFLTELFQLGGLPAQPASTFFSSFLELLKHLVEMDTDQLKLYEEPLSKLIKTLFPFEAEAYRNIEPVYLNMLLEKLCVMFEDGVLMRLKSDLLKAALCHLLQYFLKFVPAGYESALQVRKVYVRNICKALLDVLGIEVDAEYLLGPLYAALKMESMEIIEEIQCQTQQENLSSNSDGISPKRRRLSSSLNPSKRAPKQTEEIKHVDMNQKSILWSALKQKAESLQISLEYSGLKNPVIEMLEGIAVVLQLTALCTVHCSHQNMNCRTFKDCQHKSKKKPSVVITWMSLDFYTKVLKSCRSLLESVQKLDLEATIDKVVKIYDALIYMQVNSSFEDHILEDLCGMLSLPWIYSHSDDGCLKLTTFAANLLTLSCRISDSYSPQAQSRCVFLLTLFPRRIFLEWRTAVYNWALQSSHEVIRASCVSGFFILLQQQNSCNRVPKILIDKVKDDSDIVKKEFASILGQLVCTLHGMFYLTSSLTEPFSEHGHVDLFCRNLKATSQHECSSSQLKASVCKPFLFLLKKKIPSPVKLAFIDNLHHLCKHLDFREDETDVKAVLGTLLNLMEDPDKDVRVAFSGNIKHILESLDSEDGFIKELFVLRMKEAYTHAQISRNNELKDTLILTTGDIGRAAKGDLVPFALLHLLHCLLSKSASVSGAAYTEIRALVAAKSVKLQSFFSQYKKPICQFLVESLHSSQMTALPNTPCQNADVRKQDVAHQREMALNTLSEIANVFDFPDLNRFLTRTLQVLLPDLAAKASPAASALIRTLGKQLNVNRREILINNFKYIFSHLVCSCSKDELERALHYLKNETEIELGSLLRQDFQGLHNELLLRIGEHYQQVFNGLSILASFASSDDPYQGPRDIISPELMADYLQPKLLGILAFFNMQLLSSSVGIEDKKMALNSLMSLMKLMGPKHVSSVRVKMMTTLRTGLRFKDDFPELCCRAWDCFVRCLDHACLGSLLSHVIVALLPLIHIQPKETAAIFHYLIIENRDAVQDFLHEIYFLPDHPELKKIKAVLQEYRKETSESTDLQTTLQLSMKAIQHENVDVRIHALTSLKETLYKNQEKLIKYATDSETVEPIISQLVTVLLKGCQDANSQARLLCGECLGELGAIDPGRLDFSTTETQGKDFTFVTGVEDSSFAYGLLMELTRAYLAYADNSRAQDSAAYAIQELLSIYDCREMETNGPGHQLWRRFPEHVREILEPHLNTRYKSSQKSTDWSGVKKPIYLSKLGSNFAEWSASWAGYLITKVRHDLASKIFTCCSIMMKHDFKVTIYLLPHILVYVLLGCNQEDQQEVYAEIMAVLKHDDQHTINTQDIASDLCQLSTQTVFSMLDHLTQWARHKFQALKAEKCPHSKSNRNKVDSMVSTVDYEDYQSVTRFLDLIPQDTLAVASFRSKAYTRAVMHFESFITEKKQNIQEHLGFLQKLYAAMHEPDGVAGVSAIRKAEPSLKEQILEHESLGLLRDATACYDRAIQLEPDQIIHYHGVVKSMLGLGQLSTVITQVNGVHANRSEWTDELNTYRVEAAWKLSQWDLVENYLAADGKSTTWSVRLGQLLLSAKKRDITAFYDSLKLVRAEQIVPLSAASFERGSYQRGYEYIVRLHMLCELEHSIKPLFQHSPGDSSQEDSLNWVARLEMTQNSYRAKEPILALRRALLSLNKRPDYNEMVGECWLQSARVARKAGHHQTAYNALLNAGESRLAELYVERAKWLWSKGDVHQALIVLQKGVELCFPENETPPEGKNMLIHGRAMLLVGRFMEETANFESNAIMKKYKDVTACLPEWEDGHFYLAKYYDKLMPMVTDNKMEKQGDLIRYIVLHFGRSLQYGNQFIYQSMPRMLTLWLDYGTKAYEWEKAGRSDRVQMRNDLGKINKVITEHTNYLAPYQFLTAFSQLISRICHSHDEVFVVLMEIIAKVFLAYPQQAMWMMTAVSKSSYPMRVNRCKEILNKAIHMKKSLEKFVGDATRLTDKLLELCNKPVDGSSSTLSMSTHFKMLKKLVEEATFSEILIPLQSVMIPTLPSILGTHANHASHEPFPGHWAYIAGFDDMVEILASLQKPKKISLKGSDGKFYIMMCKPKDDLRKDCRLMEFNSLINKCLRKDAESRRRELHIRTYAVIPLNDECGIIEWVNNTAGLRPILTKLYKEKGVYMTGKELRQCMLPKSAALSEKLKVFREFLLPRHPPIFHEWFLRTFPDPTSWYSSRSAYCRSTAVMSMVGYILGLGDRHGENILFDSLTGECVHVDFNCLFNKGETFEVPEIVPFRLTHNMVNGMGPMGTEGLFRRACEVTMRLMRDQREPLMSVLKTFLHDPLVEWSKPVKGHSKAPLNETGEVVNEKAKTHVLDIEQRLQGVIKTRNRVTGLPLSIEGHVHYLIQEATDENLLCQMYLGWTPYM
Assays were carried out at 25° C. in the presence of 5 nM full-length ATR. An assay stock buffer solution was prepared containing all of the reagents listed above, with the exception of ATP and the test compound of interest. […] The plate was pre-incubated for 10 minutes at 25° C. and the reaction initiated by addition of 15 μL [γ-33P]ATP (final concentration 10 μM).
The reaction was stopped after […] by the addition of 30 μL 0.1M phosphoric acid containing 2 mM ATP. A multiscreen phosphocellulose filter 96-well plate (Millipore, Cat no. MAPHN0B50) was pretreated with 100 μL 0.2M phosphoric acid prior to the addition of 45 μL of the stopped assay mixture. […] After drying, 100 μL Optiphase ‘SuperMix’ liquid scintillation cocktail (Perkin Elmer) was added to the well prior to scintillation counting (1450 Microbeta Liquid Scintillation Counter, Wallac).
After removing mean background values for all of the data points, Ki(app) data were calculated from non-linear regression analysis of the initial rate data using the Prism software package (GraphPad Prism version 3.0cx for Macintosh, GraphPad Software, San Diego Calif., USA).

One may read the Ki as a dissociation constant, usually derived from enzyme kinetics or from competition with a known ligand. As to `CNCc1ccc(-c2nnc(-c3nc(-c4ccc(S(=O)(=O)C(C)C)cc4)cnc3N)o2)c(OC)c1` [IA-171, 5-(4-isopropylsulfonylphenyl)-3-[5-[2-methoxy-4-(methylaminomethyl)phenyl]-1,3,4-oxadiazol-2-yl]pyrazin-2-amine], the Ki is at most 10 nM.

For the compound `CC(C)S(=O)(=O)c1ccc(-c2cnc(N)c(-c3nnc(-c4ccc(CNC5COC5)cc4F)o3)n2)cc1` [IA-319, 3-[5-[2-fluoro-4-[(oxetan-3-ylamino)methyl]phenyl]-1,3,4-oxadiazol-2-yl]-5-(4-isopropylsulfonylphenyl)pyrazin-2-amine], the Ki is at most 10 nM.

In the case of `Nc1ncc(-c2ccccc2-c2ccccc2)nc1-c1nnc(-c2ccccc2)o1` [IA-134, 3-(5-phenyl-1,3,4-oxadiazol-2-yl)-5-(2-phenylphenyl)pyrazin-2-amine], the Ki lay in the range of 100 to 5000 nM.

In the case of `CC(CN(C)C)S(=O)(=O)c1ccc(-c2cnc(N)c(-c3nnc(-c4ccccc4F)o3)n2)cc1` (stereo not drawn) [IA-337, 5-[4-[2-(dimethylamino)-1-methyl-ethyl]sulfonylphenyl]-3-[5-(2-fluorophenyl)-1,3,4-oxadiazol-2-yl]pyrazin-2-amine], the Ki is at most 10 nM.

Take `CCNCc1ccc(-c2nnc(-c3nc(-c4ccc(S(=O)(=O)C(C)C)cc4)cnc3N)o2)s1` [IA-83, 3-[5-[5-(ethylaminomethyl)-2-thienyl]-1,3,4-oxadiazol-2-yl]-5-(4-isopropylsulfonylphenyl)pyrazin-2-amine]: the Ki is at most 10 nM.

For the compound `NC(=O)C1CCN(C(=O)c2cccc(-c3cnc(N)c(C(=O)Nc4ccccc4)n3)c2)CC1` [Compound I-62, 3-amino-6-(3-(4-carbamoylpiperidine-1-carbonyl)phenyl)-N-phenylpyrazine-2-carboxamide], the Ki was 100 to 5000 nM.

For `CNCc1ccc(-c2nnc(-c3nc(-c4ccc(S(=O)(=O)C(C)CCOC)cc4)cnc3N)o2)cc1` (stereo not drawn) [IA-330, 5-[4-(3-methoxy-1-methyl-propyl)sulfonylphenyl]-3-[5-[4-(methylaminomethyl)phenyl]-1,3,4-oxadiazol-2-yl]pyrazin-2-amine], the Ki was at most 10 nM.

With `CC[S+]([O-])c1ccccc1-c1cnc(N)c(-c2nnc(-c3ccccc3)o2)n1` (stereo not drawn) [IA-256, 5-(2-ethylsulfinylphenyl)-3-(5-phenyl-1,3,4-oxadiazol-2-yl)pyrazin-2-amine], the Ki is at most 10 nM.

As for `Nc1ncc(-c2ccoc2)nc1-c1nnc(-c2ccccc2)o1` [IA-170, 5-(3-furyl)-3-(5-phenyl-1,3,4-oxadiazol-2-yl)pyrazin-2-amine], the Ki lay in the range of 10 to 100 nM.

For `Nc1ncc(-c2ccc(C(=O)N3CCCNCC3)cc2)nc1C(=O)Nc1ccc2cn[nH]c2c1` [Compound V-4], the Ki lay in the range of 10 to 100 nM.

As to `CC(=O)Nc1nnc(-c2nc(-c3ccc(C(=O)N(C)C)cc3)cnc2N)o1` [IA-278, 4-[6-(5-acetamido-1,3,4-oxadiazol-2-yl)-5-amino-pyrazin-2-yl]-N,N-dimethyl-benzamide], the Ki lay within 100 to 5000 nM.

In the case of `CCS(=O)(=O)c1ccccc1-c1cnc(N)c(-c2nnc(-c3ccccc3)o2)n1` [IA-203, 5-(2-ethylsulfonylphenyl)-3-(5-phenyl-1,3,4-oxadiazol-2-yl)pyrazin-2-amine], the Ki is 100 to 5000 nM.

On to `Nc1ncc(-c2cnc(C(=O)N3CCCNCC3)nc2)nc1-c1nnc(-c2ccccc2)o1` [IA-37], for which the Ki fell in the range of 10 to 100 nM.

Turning to `CS(=O)(=O)c1cccc(-c2cnc(N)c(-c3nc4ccccc4[nH]3)n2)c1` [Compound I-122, 3-(1H-benzo[d]imidazol-2-yl)-5-(3-(methylsulfonyl)phenyl)pyrazin-2-amine], the Ki lay within 10 to 100 nM.

As to `CC(C)S(=O)(=O)c1ccc(-c2cnc(N)c(-c3nnc(C(=O)N4CCCNCC4)o3)n2)cc1` [IA-79, [5-[3-amino-6-(4-isopropylsulfonylphenyl)pyrazin-2-yl]-1,3,4-oxadiazol-2-yl]-(1,4-diazepan-1-yl)methanone], the Ki lay within 10 to 100 nM.

As for `N#Cc1cccc(NC(=O)c2nc(-c3cccnc3)cnc2N)c1` [Compound I-87, 3-amino-N-(3-cyanophenyl)-6-(pyridin-3-yl)pyrazine-2-carboxamide], the Ki is 100 to 5000 nM.

For the compound `N#CCCN1CCN(C(=O)c2ccc(-c3cnc(N)c(C(=O)Nc4ccccc4)n3)cc2)CC1` [Compound I-81, 3-amino-6-(4-(4-(2-cyanoethyl)piperazine-1-carbonyl)phenyl)-N-phenylpyrazine-2-carboxamide], the Ki is at most 10 nM.

For the compound `CC(C)S(=O)(=O)c1ccc(-c2cnc(N)c(-c3nnc(NC4CCNCC4)o3)n2)cc1` [IA-318, 5-[3-amino-6-(4-isopropylsulfonylphenyl)pyrazin-2-yl]-N-(4-piperidyl)-1,3,4-oxadiazol-2-amine], the Ki lay within 100 to 5000 nM.

Regarding `Nc1ncc(-c2cccnc2)nc1C(=O)Nc1ccccn1` [Compound I-97, 3-amino-N-(pyridin-2-yl)-6-(pyridin-3-yl)pyrazine-2-carboxamide], the Ki was 100 to 5000 nM.

Consider `CN(C)C(=O)c1ccc(-c2cnc(N)c(-c3nnc(Nc4cccc(C#N)c4)o3)n2)cc1` [IA-254, 4-[5-amino-6-[5-(3-cyanoanilino)-1,3,4-oxadiazol-2-yl]pyrazin-2-yl]-N,N-dimethyl-benzamide], for which the Ki lay within 100 to 5000 nM.

With `Nc1ncc(-c2ccc(C(=O)N3CCCNCC3)cc2)nc1C(=O)Nc1nc2ccccc2s1` [Compound V-9], the inhibition constant (Ki) was 10 to 100 nM.

Turning to `Nc1ncc(-c2ccc(F)cc2)nc1C(=O)Nc1ccccc1` [Compound I-4, 3-amino-6-(4-fluorophenyl)-N-phenylpyrazine-2-carboxamide], the Ki is 100 to 5000 nM.

In the case of `Nc1ncc(-c2cccc3ccsc23)nc1-c1nnc(-c2ccccc2)o1` [IA-259, 5-(benzothiophen-7-yl)-3-(5-phenyl-1,3,4-oxadiazol-2-yl)pyrazin-2-amine], the Ki is 10 to 100 nM.

In the case of `COc1ccc(C)cc1NC(=O)c1nc(-c2cccnc2)cnc1N` [Compound I-108, 3-amino-N-(2-methoxy-5-methylphenyl)-6-(pyridin-3-yl)pyrazine-2-carboxamide], the Ki was at most 10 nM.

Turning to `CNCc1ccc(-c2nnc(-c3nc(-c4ccc(S(=O)(=O)C(C)C)cc4F)cnc3N)o2)cc1` [IA-292, 5-(2-fluoro-4-isopropylsulfonyl-phenyl)-3-[5-[4-(methylaminomethyl)phenyl]-1,3,4-oxadiazol-2-yl]pyrazin-2-amine], the Ki is at most 10 nM.

On to `Nc1ncc(-c2ccccc2-c2cnco2)nc1-c1nnc(-c2ccccc2)o1` [IA-207, 5-(2-oxazol-5-ylphenyl)-3-(5-phenyl-1,3,4-oxadiazol-2-yl)pyrazin-2-amine], for which the Ki was 100 to 5000 nM.

Turning to `Nc1ncc(-c2cccnc2)nc1C(=O)Nc1cccc2c1OC(F)(F)O2` [Compound I-99, 3-amino-N-(2,2-difluorobenzo[d][1,3]dioxol-4-yl)-6-(pyridin-3-yl)pyrazine-2-carboxamide], the Ki was in the range of 100 to 5000 nM.

Regarding `CC#Cc1cc(C(=O)N(C)C)ccc1-c1cnc(N)c(-c2nnc(-c3ccccc3)o2)n1` [IA-268, 4-[5-amino-6-(5-phenyl-1,3,4-oxadiazol-2-yl)pyrazin-2-yl]-N,N-dimethyl-3-prop-1-ynyl-benzamide], the Ki lay within 10 to 100 nM.

Turning to `N#CCc1ccccc1-c1cnc(N)c(-c2nnc(-c3ccccc3)o2)n1` [IA-221, 2-[2-[5-amino-6-(5-phenyl-1,3,4-oxadiazol-2-yl)pyrazin-2-yl]phenyl]acetonitrile], the Ki was 100 to 5000 nM.

With `CC(C)S(=O)(=O)c1ccc(-c2cnc(N)c(-c3nnc(NC(=O)[C@H]4N[C@H]5CC[C@@H]4C5)o3)n2)cc1` [IA-160, (1R,4S,6S)—N-[5-[3-amino-6-(4-isopropylsulfonylphenyl)pyrazin-2-yl]-1,3,4-oxadiazol-2-yl]-5-azabicyclo[2.2.1]heptane-6-carboxamide], the Ki was in the range of 100 to 5000 nM.

Consider `Nc1ncc(-c2cccnc2)nc1C(=O)Nc1ccc2cc[nH]c2c1` [Compound I-105, 3-amino-N-(1H-indol-6-yl)-6-(pyridin-3-yl)pyrazine-2-carboxamide], for which the Ki lay in the range of 10 to 100 nM.

`CN(C)C(=O)c1ccc(-c2cnc(N)c(-c3nnc(-c4ccnc(N)c4)o3)n2)cc1` [IA-223, 4-[5-amino-6-[5-(2-amino-4-pyridyl)-1,3,4-oxadiazol-2-yl]pyrazin-2-yl]-N,N-dimethyl-benzamide]: the Ki was 10 to 100 nM.

Consider `CN(C)C(=O)c1ccc(-c2cnc(N)c(-c3nnc(-c4cccc(F)c4)o3)n2)cc1` [IA-40, 4-(5-amino-6-(5-(3-fluorophenyl)-1,3,4-oxadiazol-2-yl)pyrazin-2-yl)-N,N-dimethylbenzamide], for which the Ki lay within 10 to 100 nM.

Regarding `NCc1cccc(-c2nnc(-c3nc(-c4cccnc4)cnc3N)[nH]2)c1` [Compound I-143, 3-(5-(3-(aminomethyl)phenyl)-4H-1,2,4-triazol-3-yl)-5-(pyridin-3-yl)pyrazin-2-amine], the Ki lay in the range of 10 to 100 nM.

`CC(C)S(=O)(=O)c1ccc(-c2cnc(N)c(-c3nnc(N)o3)n2)cc1` [IA-270, 5-[3-amino-6-(4-isopropylsulfonylphenyl)pyrazin-2-yl]-1,3,4-oxadiazol-2-amine]: the inhibitory constant (Ki) was at most 10 nM.

Turning to `Nc1ncc(-c2ccc(C(=O)N3CCC(O)C3)cc2)nc1C(=O)Nc1ccccc1` (stereo not drawn) [Compound I-75, 3-amino-6-(4-(3-hydroxypyrrolidine-1-carbonyl)phenyl)-N-phenylpyrazine-2-carboxamide], the Ki lay in the range of 10 to 100 nM.
